Key:
rCGGBP1 [1] = target: T1, rCGGBP1 (Homo sapiens, UniProt Q9UFW8); test: in vitro Alu DNA immunoprecipitation with qPCR (anti-FLAG); assay type: binding; conditions: 100 μM compound, 45 min, room temperature, PBS; Alu DNA 1 μg, protein 0.5 μg
T1 construct: gene CGGBP1; recombinant, C-terminal FLAG tag; about 20 kDa
T1 sequence (Q9UFW8 1-167): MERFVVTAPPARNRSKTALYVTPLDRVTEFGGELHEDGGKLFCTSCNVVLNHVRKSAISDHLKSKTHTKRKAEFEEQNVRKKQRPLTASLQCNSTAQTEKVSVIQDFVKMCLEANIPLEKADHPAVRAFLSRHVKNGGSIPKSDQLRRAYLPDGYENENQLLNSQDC
Experimental: in vitro Alu DNA immunoprecipitation with qPCR (anti-FLAG) on rCGGBP1 | Pre-incubation of rCGGBP1 with Givinostat reduces the amount of Alu DNA co-precipitating with FLAG-antibody by […]

rCGGBP1 [2] = target: T1, rCGGBP1; test: DBID dot blot of protein binding to immobilised genomic DNA, chemiluminescence densitometry; conditions: 100 μM compound, 45 min, 4 °C, RIPA buffer; sonicated HEK293T genomic DNA

SMILES | % reduction of co-precipitated Alu DNA at 100 μM (rCGGBP1 [1]) | DBID dot blot of protein binding to immobilised genomic DNA, chemiluminescence d (rCGGBP1 [2])
CCN(CC)Cc1ccc2cc(COC(=O)Nc3ccc(C(=O)NO)cc3)ccc2c1 [Givinostat] | 70-80% | 
CC(NC(=O)c1ccccc1/N=C/c1c(O)ccc2ccccc12)c1ccccc1 (stereo not drawn) [Sirtinol] |  | (ii) moderate inhibition (Sirtinol and Tenovin-I)
CC(=O)Nc1ccc(NC(=S)NC(=O)c2ccc(C(C)(C)C)cc2)cc1 [Tenovin-1] |  | (ii) moderate inhibition (Sirtinol and Tenovin-I)

Source: article PMC7576722, “An immunochemistry-based screen for chemical inhibitors of DNA-protein interactions and its application to human CGGBP1” (BMC Cancer, 2020)
